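Interpolation was linear, between the two tested concentrations surrounding the appropriate level; five concentrations were tested over 48 hours in 96-well plates. TGI marks complete inhibition of growth.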
The molecules below were run on NCI-H23 lung (assay: growth of human tumour cells (NCI), 48 h).

`C[C@@H]1C(=O)CC2(O)[C@@]13C[C@@H](OC(=O)[C@@H]3O)[C@@H](C)[C@@]21COC1=O` (some centres not stated) and `CC12CCC(C/C1=N\NC(N)=O)C2(C)C` (configuration not stated) cannot be ordered by TGI: over 100 µM for the first, over 100 µM for the second.

First: COc1ccc(/C(C)=N/NC(=S)N(C)C)c(O)c1
Second: COC(=O)C1=C(C)N2[C@H](C(=O)O)CS[C@@]2(C)[C@H](C(=O)OC)[C@H]1c1cccc([N+](=O)[O-])c1
The TGI of the first is lower: 72.9 µM for the first, over 100 µM for the second.

`CCCCCC(C(O)C#N)C(O)(C(F)(F)F)C(F)(F)F` (configuration not stated) and `CC/C=C\C/C=C\C/C=C\CCCCCCCC(=O)OC(COC(=O)CCCCCCCCCCCCCCCCC)COC1OC(CO)C(O)C(O)C1O` (configuration not stated) cannot be ordered by TGI: over 10 µM for the first, over 25 µM for the second.

`COC(=O)C(CCCCNC(=O)CNC(=O)OCc1ccccc1)NC(=O)C(CCCCNC(=O)CNC(=O)OCc1ccccc1)NC(=O)OCc1ccccc1` (configuration not stated) was tested, and the TGI was over 100 µM.

Each molecule was assayed on NCI-H460 lung (assay: growth of human tumour cells (NCI), 48 h).

`CCN(CC)C(=S)SS(=O)(=O)c1ccc(C)cc1` and `COc1ccc(/C(C)=N/NC(=S)N(C)C)c(O)c1` cannot be ordered by TGI: over 100 µM for the first, over 100 µM for the second.

`C[C@@H]1C(=O)CC2(O)[C@@]13C[C@@H](OC(=O)[C@@H]3O)[C@@H](C)[C@@]21COC1=O` (some centres not stated) and `CC12CCC(C/C1=N\NC(N)=O)C2(C)C` (configuration not stated) cannot be ordered by TGI: over 100 µM for the first, over 100 µM for the second.

`CC/C=C\C/C=C\C/C=C\CCCCCCCC(=O)OC(COC(=O)CCCCCCCCCCCCCCCCC)COC1OC(CO)C(O)C(O)C1O` (configuration not stated) and `COC(=O)C(CCCCNC(=O)CNC(=O)OCc1ccccc1)NC(=O)C(CCCCNC(=O)CNC(=O)OCc1ccccc1)NC(=O)OCc1ccccc1` (configuration not stated) cannot be ordered by TGI: over 25 µM for the first, over 100 µM for the second.

`COC(=O)C1=C(C)N2[C@H](C(=O)O)CS[C@@]2(C)[C@H](C(=O)OC)[C@H]1c1cccc([N+](=O)[O-])c1` was tested, and the TGI was over 100 µM.

The molecules below were run on NCI-H522 lung (assay: growth of human tumour cells (NCI), 48 h).

`C[C@@H]1C(=O)CC2(O)[C@@]13C[C@@H](OC(=O)[C@@H]3O)[C@@H](C)[C@@]21COC1=O` (some centres not stated) and `CC12CCC(C/C1=N\NC(N)=O)C2(C)C` (configuration not stated) cannot be ordered by TGI: over 100 µM for the first, over 100 µM for the second.

`COc1ccc(/C(C)=N/NC(=S)N(C)C)c(O)c1` and `COC(=O)C1=C(C)N2[C@H](C(=O)O)CS[C@@]2(C)[C@H](C(=O)OC)[C@H]1c1cccc([N+](=O)[O-])c1` cannot be ordered by TGI: over 100 µM for the first, over 100 µM for the second.

`CCCCCC(C(O)C#N)C(O)(C(F)(F)F)C(F)(F)F` (configuration not stated) and `CC/C=C\C/C=C\C/C=C\CCCCCCCC(=O)OC(COC(=O)CCCCCCCCCCCCCCCCC)COC1OC(CO)C(O)C(O)C1O` (configuration not stated) cannot be ordered by TGI: over 10 µM for the first, over 25 µM for the second.

These molecules were tested on NCI/ADR-RES ovarian (assay: growth of human tumour cells (NCI), 48 h).

`CCN(CC)C(=S)SS(=O)(=O)c1ccc(C)cc1` and `COC(=O)C1=C(C)N2[C@H](C(=O)O)CS[C@@]2(C)[C@H](C(=O)OC)[C@H]1c1cccc([N+](=O)[O-])c1` cannot be ordered by TGI: over 100 µM for the first, over 100 µM for the second.

`C[C@@H]1C(=O)CC2(O)[C@@]13C[C@@H](OC(=O)[C@@H]3O)[C@@H](C)[C@@]21COC1=O` (some centres not stated) and `CC12CCC(C/C1=N\NC(N)=O)C2(C)C` (configuration not stated) cannot be ordered by TGI: over 100 µM for the first, over 100 µM for the second.

`CCCCCC(C(O)C#N)C(O)(C(F)(F)F)C(F)(F)F` (configuration not stated) and `CC/C=C\C/C=C\C/C=C\CCCCCCCC(=O)OC(COC(=O)CCCCCCCCCCCCCCCCC)COC1OC(CO)C(O)C(O)C1O` (configuration not stated) cannot be ordered by TGI: over 10 µM for the first, over 25 µM for the second.

The molecules below were run on OVCAR-3 ovarian (assay: growth of human tumour cells (NCI), 48 h).

`CCN(CC)C(=S)SS(=O)(=O)c1ccc(C)cc1` and `COc1ccc(/C(C)=N/NC(=S)N(C)C)c(O)c1` cannot be ordered by TGI: over 100 µM for the first, over 100 µM for the second.

`C[C@@H]1C(=O)CC2(O)[C@@]13C[C@@H](OC(=O)[C@@H]3O)[C@@H](C)[C@@]21COC1=O` (some centres not stated) and `CC12CCC(C/C1=N\NC(N)=O)C2(C)C` (configuration not stated) cannot be ordered by TGI: over 100 µM for the first, over 100 µM for the second.

`CCCCCC(C(O)C#N)C(O)(C(F)(F)F)C(F)(F)F` (configuration not stated) and `CC/C=C\C/C=C\C/C=C\CCCCCCCC(=O)OC(COC(=O)CCCCCCCCCCCCCCCCC)COC1OC(CO)C(O)C(O)C1O` (configuration not stated) cannot be ordered by TGI: over 10 µM for the first, over 25 µM for the second.

`COC(=O)C1=C(C)N2[C@H](C(=O)O)CS[C@@]2(C)[C@H](C(=O)OC)[C@H]1c1cccc([N+](=O)[O-])c1` and `COC(=O)C(CCCCNC(=O)CNC(=O)OCc1ccccc1)NC(=O)C(CCCCNC(=O)CNC(=O)OCc1ccccc1)NC(=O)OCc1ccccc1` (configuration not stated) cannot be ordered by TGI: over 100 µM for the first, over 100 µM for the second.

Each molecule was assayed on OVCAR-4 ovarian (assay: growth of human tumour cells (NCI), 48 h).

First: CCN(CC)C(=S)SS(=O)(=O)c1ccc(C)cc1
Second: COc1ccc(/C(C)=N/NC(=S)N(C)C)c(O)c1
The TGI of the first is higher: over 100 µM for the first, 9.48 µM for the second.

`C[C@@H]1C(=O)CC2(O)[C@@]13C[C@@H](OC(=O)[C@@H]3O)[C@@H](C)[C@@]21COC1=O` (some centres not stated) and `CC12CCC(C/C1=N\NC(N)=O)C2(C)C` (configuration not stated) cannot be ordered by TGI: over 100 µM for the first, over 100 µM for the second.

`CCCCCC(C(O)C#N)C(O)(C(F)(F)F)C(F)(F)F` (configuration not stated) and `CC/C=C\C/C=C\C/C=C\CCCCCCCC(=O)OC(COC(=O)CCCCCCCCCCCCCCCCC)COC1OC(CO)C(O)C(O)C1O` (configuration not stated) cannot be ordered by TGI: over 10 µM for the first, over 25 µM for the second.

Compared with `COC(=O)C1=C(C)N2[C@H](C(=O)O)CS[C@@]2(C)[C@H](C(=O)OC)[C@H]1c1cccc([N+](=O)[O-])c1`, `COC(=O)C(CCCCNC(=O)CNC(=O)OCc1ccccc1)NC(=O)C(CCCCNC(=O)CNC(=O)OCc1ccccc1)NC(=O)OCc1ccccc1` (configuration not stated) is lower in TGI: over 100 µM for the first, 89.9 µM for the second.

These molecules were tested on OVCAR-5 ovarian (assay: growth of human tumour cells (NCI), 48 h).

`CCN(CC)C(=S)SS(=O)(=O)c1ccc(C)cc1` and `COc1ccc(/C(C)=N/NC(=S)N(C)C)c(O)c1` cannot be ordered by TGI: over 100 µM for the first, over 100 µM for the second.

`C[C@@H]1C(=O)CC2(O)[C@@]13C[C@@H](OC(=O)[C@@H]3O)[C@@H](C)[C@@]21COC1=O` (some centres not stated) and `CC12CCC(C/C1=N\NC(N)=O)C2(C)C` (configuration not stated) cannot be ordered by TGI: over 100 µM for the first, over 100 µM for the second.

`CCCCCC(C(O)C#N)C(O)(C(F)(F)F)C(F)(F)F` (configuration not stated) and `CC/C=C\C/C=C\C/C=C\CCCCCCCC(=O)OC(COC(=O)CCCCCCCCCCCCCCCCC)COC1OC(CO)C(O)C(O)C1O` (configuration not stated) cannot be ordered by TGI: over 10 µM for the first, over 25 µM for the second.

`COC(=O)C1=C(C)N2[C@H](C(=O)O)CS[C@@]2(C)[C@H](C(=O)OC)[C@H]1c1cccc([N+](=O)[O-])c1` and `COC(=O)C(CCCCNC(=O)CNC(=O)OCc1ccccc1)NC(=O)C(CCCCNC(=O)CNC(=O)OCc1ccccc1)NC(=O)OCc1ccccc1` (configuration not stated) cannot be ordered by TGI: over 100 µM for the first, over 100 µM for the second.

The molecules below were run on OVCAR-8 ovarian (assay: growth of human tumour cells (NCI), 48 h).

Compared with `CCN(CC)C(=S)SS(=O)(=O)c1ccc(C)cc1`, `C[C@@H]1C(=O)CC2(O)[C@@]13C[C@@H](OC(=O)[C@@H]3O)[C@@H](C)[C@@]21COC1=O` (some centres not stated) is higher in TGI: 40.2 µM for the first, over 100 µM for the second.
